In BindingDB's records for doi:10.1016/j.bmcl.2007.04.096 (University of Michigan, 2007):
Where a SMILES comes first, the peptide text is derived from it. Bridges are numbered along the chain shown (N, C = ends). Triazole bridges read from a SMILES are 1,4-linked. [ ]: non-standard residue; d: D form. ξ: configuration not given here. pY = N[C@@H](Cc1ccc(OP(=O)(O)O)cc1)C(=O)O; Lys(N3) = [N-]=[N+]=NCCCC[C@H](N)C(=O)O; Thr(3ξ) = CC(O)[C@H](N)C(=O)O; Pra = C#CC[C@H](N)C(=O)O

Target: T1, Signal transducer and activator of transcription 3 [127-722] (Mus musculus, UniProt P42227)
T1 construct: 127-722
Experiment: Fluorescence-Polarization-Based Binding Assay
Conditions: pH 7.5; 22 °C
From the text: Fluorescence polarization (FP) binding assay is utilizing the intrinsic property of the fluorescent probe, which will have low polarization value when free in solution. On binding to a target, the polarization of the probe will increase.

T1 sequence (P42227 127-722): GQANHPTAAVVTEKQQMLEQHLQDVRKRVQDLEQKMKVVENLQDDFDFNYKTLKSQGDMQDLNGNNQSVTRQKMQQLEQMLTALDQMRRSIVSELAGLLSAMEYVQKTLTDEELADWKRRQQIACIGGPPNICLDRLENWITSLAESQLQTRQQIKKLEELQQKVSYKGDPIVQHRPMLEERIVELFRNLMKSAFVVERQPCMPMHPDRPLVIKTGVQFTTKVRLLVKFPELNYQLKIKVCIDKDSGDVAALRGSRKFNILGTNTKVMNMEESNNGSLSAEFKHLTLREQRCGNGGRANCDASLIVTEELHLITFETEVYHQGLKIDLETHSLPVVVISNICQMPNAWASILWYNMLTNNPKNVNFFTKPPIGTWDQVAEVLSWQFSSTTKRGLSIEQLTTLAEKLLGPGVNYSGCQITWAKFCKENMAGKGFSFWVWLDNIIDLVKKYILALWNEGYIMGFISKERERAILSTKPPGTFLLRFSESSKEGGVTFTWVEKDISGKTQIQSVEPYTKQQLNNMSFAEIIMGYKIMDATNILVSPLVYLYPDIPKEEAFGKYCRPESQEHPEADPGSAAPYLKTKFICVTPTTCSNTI

Row | SMILES | Ki
1 | CC(=O)N[C@@H](Cc1ccc(OP(=O)(O)O)cc1)C(=O)N[C@@H](CC(C)C)C(=O)N[C@@H](CCCCN)C(=O)N[C@H](C(=O)N[C@@H](CCCCN)C(=O)N[C@@H](Cc1ccccc1)C(N)=O)C(C)O (stereo partly drawn) [4-[(2S)-2-{[(1S)-1-{[(1S)-5-amino-1-{[(1S,2R)-1-{[(1S)-5-amino-1-{[(1S)-1-carbamoyl-2-phenylethyl]carbamoyl}pentyl]carbamoyl}-2-hydroxypropyl]carbamoyl}pentyl]carbamoyl}-3-methylbutyl]carbamoyl}-2-acetamidoethyl]phenoxyphosphonic acid] (HELM PEPTIDE1{[ac].[O=C([C@H](Cc1ccc(OP(=O)(O)O)cc1)N[*:1])[*:2]].L.K.[CC(O)[C@H](N[*:1])C(=O)[*:2]].K.F.[am]}$$$$V2.0) | 25.9 µM
2 | CC(=O)N[C@@H](Cc1ccc(OP(=O)(O)O)cc1)C(=O)N[C@@H](CC(C)C)C(=O)N[C@H]1CCCCn2cc(nn2)C[C@@H](C(=O)N[C@@H](Cc2ccccc2)C(N)=O)NC(=O)[C@H](C(C)O)NC1=O (stereo partly drawn) [4-[(2S)-2-{[(1S)-1-{[(6S,9S,12S)-12-{[(1S)-1-carbamoyl-2-phenylethyl]carbamoyl}-9-[(1R)-1-hydroxyethyl]-7,10-dioxo-1,8,11,15,16-pentaazabicyclo[12.2.1]heptadeca-14(17),15-dien-6-yl]carbamoyl}-3-methylbutyl]carbamoyl}-2-acetamidoethyl]phenoxyphosphonic acid] (Ac-[pY]L[Lys(N3)][Thr(3ξ)][Pra]F-NH2; triazole 3-5) | 7.3 µM
